The results in this text go back to patent US20250235501A1, “Methods and Compositions for Treating or Preventing Neurological Injury or Neurological Disorders” (University of Connecticut, priority 2024, published 2025).

This assay concerns cultured cortical neurons. The experiment in a line: OGD-induced Ca2+ overload and neuronal death, Fura-2 ratio Ca2+ imaging. As to conditions: for OGD-mediated neuronal death: WT neurons, 10 μM overnight. The format is cell-based, mouse. The protocol:
FIGS. 6C-6E show the effects of TAT-EE3 on Ca2+ overload and neuronal death caused by OGD. Cultured WT and gM2KO cortical neurons were treated with 10 μM TAT-SC and TAT-EE3 for overnight before experiments.
Mice pups at P0 were euthanized based on animal protocol. Whole brain was dissected out immediately and immersed in ice-cold Hank's Balanced Salt Solution (HBSS). Meninges were removed thoroughly, and tissue of different brain areas was taken based on purposes. Brain tissue was cut into small pieces and digested with 0.25% trypsin (Thermal Fisher Scientific, 15090-046) in HBSS at 37° C. for 20 min. Digestion solution was quickly removed, and tissue pellets are washed with Neurobasal® Medium (Thermal Fisher Scientific, 21103-049) for 3 times. Cells were resuspended with appropriate amount of Neurobasal® Medium supplemented with 2% B27® supplement (Thermal Fisher Scientific, 17504-044), 3% horse serum (Thermal Fisher Scientific, 16050114), 0.25% L-glutamine (Thermal Fisher Scientific, 25030-081) and 1% penicillin/streptomycin (Thermal Fisher Scientific, 15140-122). Isolated cells were counted and plated on coverslips pre-coated with poly-L-lysine (Sigma-Aldrich, P4707) at a density about 500×10^3 cells/cm2 for OGD and H2O2 treatment, and 100×10^3 cells/cm2 for current recording. Cytosine arabinoside (Sigma-Aldrich, C1768) was added to maintain a concentration at 1 μM to inhibit the proliferation of non-neuronal cells. 24 h after plating, culture medium was changed to Neurobasal® Medium supplemented with 2% B27® supplement, 0.25% L-glutamine and 1% penicillin/streptomycin. The concentration of Cytosine arabinoside (araC) was increased to 2 μM. Medium was changed every 3 days. OGD and H2O2 treatment was conducted at 7th day of culture, and current recording was conducted at 7th, 10th and 14th day of culture.
Oxygen-glucose deprivation (OGD) was achieved by replace the glucose in aCSF with sucrose, and 95% N2 and 5% CO2 was used to equilibrate sucrose-aCSF to displace oxygen. This condition typically yielded a pO2 of <5 mm Hg in the imaging chamber (Thompson, R. J., Zhou, N., and Mac Vicar, B. A. (2006). Ischemia opens neuronal gap junction hemichannels. Science 312, 924-27). At least 10 min was allowed for neurons to adapt to the change from culture medium to aCSF before OGD was applied.
Changes of intracellular Ca2+ was measured using ratio Ca2+ imaging as we describe previously (Du, J., Xie, J., Zhang, Z., Tsujikawa, H., Fusco, D., Silverman, D., Liang, B., and Yue, L. (2010). TRPM7-mediated Ca2+ signals confer fibrogenesis in human atrial fibrillation. Circulation research 106, 992-1003). In brief, Fura-2 AM (Thermal Fisher Scientific, F1221) was dissolved in DMSO to make a stock concentration at 1 mM. Pre-warmed Neurobasal® Medium (Thermal Fisher Scientific, 21103-049) was used to dilute Fura-2 AM to a working concentration at 2.5 μM, and 0.02% Pluronic™ F-127 (Thermal Fisher Scientific, P3000MP) was added to facilitate loading of Fura-2 AM. Cells plated on 25 mm glass coverslips were washed using pre-warmed PBS for 3 times, and then incubated with 2 ml of Fura-2 AM working solution for 30˜45 min at 37° C. […]
Ca2+ influx was measured by perfusing the cells with Tyrode's solution for transfected HEK293T cells or aCSF for neurons under different conditions. […] Fluorescence intensities at 510 nm with 340 nm and 380 nm excitation were collected at a rate of 1 Hz using CoolSNAP HQ2 (Photometrics) and data were analyzed using NIS-Elements (Nikon). […]

Setting [1] is: pretreatment 10 μM overnight, F340/380.

Take “TAT-EE3: membrane permeable disrupting peptide, sequence YGRKKRRQRRREEDTDSSEEMLALAEE (SEQ ID NO: 4)”: the OGD-mediated neuronal death by setting is: (30 min OGD, WT without TAT-EE3 10.6%) 3.6%; (60 min OGD, WT without TAT-EE3 47.6%) 9.9%; (90 min OGD, WT without TAT-EE3 70.5%) 45.2%. Moreover, the “OGD-induced changes of intracellular Ca2+ in TRPM2-KO neurons” value under setting [1] is recorded as “not in TRPM2-KO neurons”. In addition, the “OGD-induced changes of intracellular Ca2+ in WT neurons” value under setting [1] was “significantly reduced”.
